Measured values published in US20240108740A1, “THERAPEUTIC COMPOSITIONS INCLUDING SPN10 AND USES THEREOF” (Stealth BioTherapeutics Inc., priority 2022, published 2024).
Residues, ends and D or L forms follow the SMILES beside them.

Columns and labels:
[1] = system: isolated mitochondrial, cultured cells and animal subjects; assay: Mitochondrial reduction potential; conditions: in vitro and in vivo
Text: It is anticipated that SPN10(s) (with or without aromatic-cationic peptides) and conjugates will enhance mitochondrial reduction potential in vitro in isolated mitochondrial and in vivo in cultured cells and animal subjects.

neuronal N2A cells = assay: Example 21: intracellular ROS and cell survival after t-BHP; assay type: cell-based; conditions: t-BHP 0.5 or 1 mM, 40 min; then 4 hours
Procedure: Cells will be washed twice and incubated in medium alone or medium containing varying concentrations of peptide conjugates, aromatic-cationic peptides or SPN10(s) with or without aromatic-cationic peptides for 4 hours. Intracellular ROS will be measured using carboxy-H2DCFDA (Molecular Probes, Portland, OR, U.S.A.). Cell death will be measured using an MTS cell proliferation assay (Promega, Madison, WI).

Sprague Dawley rats = assay: Example 45: hypermetabolism after burn injury (indirect calorimetry); assay type: in vivo, rat; conditions: 30% total body surface area burn; IV every 12 hours for three days
Procedure: Sprague Dawley rats will be randomized into the following groups; sham-burn (SB), burn with saline treatment (B), burn with peptide conjugate-treatment (BP), burn with aromatic-cationic peptides (BP2), burn with SPN10(s) (BP3), burn with SPN10(s)+aromatic-cationic peptides (BP4). Catheters will be surgically placed into jugular vein and carotid artery. Band BP, BP2, BP3 and BP4 animals will receive 30% total body surface area full thickness burns by immersing the dorsal part into 100° C. water for 12 seconds with immediate fluid resuscitation. […] The EE of the animals will be monitored for 12 hours in a TSE Indirect Calorimetry System (TSE Co., Germany).

hind limb casted mice = assay: Hind limb immobilization (casting) induced skeletal muscle atrophy; assay type: in vivo, mouse
Procedure: 2. […] Casted mice will receive an i.p. injection of saline vehicle (0.3 mL), peptide conjugate, aromatic-cationic peptide, SPN10, or SPN10 with aromatic-cationic peptides. A control group of untreated mice will be also used in this experiment.
Subjects will receive s.c. injections of saline vehicle (0.3 mL) or the peptide conjugate, aromatic-cationic peptide or SPN10 (alone or in combination with aromatic-cationic peptides) (1.5 mg/kg for the peptide conjugate and equivalent molar doses of aromatic-cationic peptide and/or SPN10 based on concentration of the aromatic-cationic peptide or SPN10 administered in the peptide conjugate group) administered once daily during the immobilization period.
Immobilization. Mice will be anesthetized with gaseous isoflurane (3% induction, 0.5-2.5%) maintenance). Anesthetized animals will be cast-immobilized bilaterally with the ankle joint in the plantar-flexed position to induce maximal atrophy of the soleus and plantaris muscle. Both hind limbs and the caudal fourth of the body will be encompassed by a plaster cast. A thin layer of padding will be placed underneath the cast in order to prevent abrasions. In addition, to prevent the animals from chewing on the cast, one strip of fiberglass material will be applied over the plaster. The mice will be monitored on a daily basis for chewed plaster, abrasions, venous occlusion, and problems with ambulation.
Preparation of permeabilized muscle fibers. Permeabilized muscle fibers will be prepared as previously described. Korshunov, et al., FEBS Lett 416:15-18, 1997; Tonkonogi, et al., Pfliigers Arch 446:261-269, 2003. Briefly, the muscle will be trimmed of connective tissue and cut down to fiber bundles (4-8 mg wet wt). Under a microscope and using a pair of extra-sharp forceps, the muscle fibers will be gently separated in ice-cold buffer X containing 60 mM K-MES, 35 mM KCl, 7.23 mM K2EGTA, 2.77 mM CaK2EGTA, 20 mM imidazole, 0.5 mM DTT, 20 mM taurine, 5.7 mM ATP, 15 mM PCr, and 6.56 mM MgCl2·6 H2O (pH 7.1, 295 mosmol/kg H2O) to maximize surface area of the fiber bundle. To permeabilize the myofibers, each fiber bundle will be incubated in ice-cold buffer X containing 50 μg/mL saponin on a rotator for 30 minutes at 4° C. The permeabilized bundles will be washed in ice-cold buffer Z, containing 110 mM K-MES, 35 mM KCl, 1 mM EGTA, 5 mM K2HPO4, and 3 mM MgCl2, 0.005 mM glutamate, and 0.02 mM malate and 0.5 mg/mL BSA, pH 7.1.
Mitochondrial respiration in permeabilized fibers. Respiration will be measured polarographically in a respiration chamber maintained at 37° C. (Hansatech Instruments, United Kingdom). After the respiration chamber will be calibrated, permeabilized fiber bundles will be incubated with 1 mL of respiration buffer Z containing 20 mM creatine to saturate creatine kinase (Saks, et al., Mol. Cell Biochem. 184:81-100, 1998; Walsh, et al., J. Physiol. 537:971-978,2001). Flux through complex I will be measured using 5 mM pyruvate and 2 mM malate. The maximal respiration (state 3), defined as the rate of respiration in the presence of ADP, will be initiated by adding 0.25 mM ADP to the respiration chamber. Basal respiration (state 4) will be determined in the presence of 10 µg/mL oligomycin to inhibit ATP synthesis. The respiratory control ratio (RCR) will be calculated by dividing state 3 by state 4 respiration.
Mitochondrial ROS production. Mitochondrial ROS production will be determined using Amplex™ Red (Molecular Probes, Eugene, OR, U.S.A.). The assay will be performed at 37° C. in 96-well plates using succinate as the substrate. Superoxide dismutase (SOD) will be added at 40 units/mL to convert all superoxide into H2O2. Resorufin formation (Amplex™ Red oxidation by H2O2) will be monitored at an excitation wavelength of 545 nm and an emission wavelength of 590 nm using a multi-well plate reader fluorometer (SpectraMax, Molecular Devices, Sunnyvale, CA, U.S.A.). […]

N=C(N)NCCC[C@H](NC(=O)[C@@H](N)Cc1c[nH]c2ccccc12)C(=O)N[C@@H](Cc1c[nH]c2ccccc12)C(=O)N[C@@H](CCCCN)C(N)=O [SPN10, H-L-Trp-L-Arg-L-Trp-L-Lys-NH2] (H-WRWK-NH2)
mitochondrial reduction potential [1]: enhance
cell survival (MTS) (neuronal N2A cells): increase cell survival
intracellular ROS (carboxy-H2DCFDA) (neuronal N2A cells): dose-dependently reduce intracellular ROS
increase in energy expenditure (EE) after burn (Sprague Dawley rats): attenuate or prevent this effect
oxidative damage in soleus muscle, lipid peroxidation via 4-hydroxynonenal (4-HNE) (hind limb casted mice; casting): overcome
protease activity in the soleus muscle (hind limb casted mice; casting): attenuated or prevented
increase in H2O2 production by mitochondria isolated from soleus muscle (hind limb casted mice; casting for 7 days): prevented
decrease in soleus muscle weight and mitochondrial state 3 respiration (hind limb casted mice; hind limb casting for 7 days): reversed
calpain-1, caspase-3 and caspase-12 proteolytic degradation of muscle (hind limb casted mice; mouse, in vivo): prevented
oxidative damage and associated muscle weakness induced by hind limb immobilization (hind limb casted mice; mouse, in vivo): prevent
